# Measurements published in paper PMC9072125 (RSC Advances, 2019).
# System: LfDAPDH
# Conditions: 200 mM NH4Cl, 0.5 mM NADPH, 50 mM Na2CO3/NaHCO3 pH 9.0, 30 °C; reductive amination
smiles,measurement,value
O=C(O)C(=O)Cc1ccccc1 [PPA],Km,7.61 ± 0.14 mM
